Columns and labels:
Experiment in all cases: relative viability (nuclei count vs DMSO), 5 days (fraction); higher = more cells survive
[1] = compound: Cc1ccc2nc(NCCN)c3ncc(C)n3c2c1 + Cc1cc(Nc2cc(N3CCN(C)CC3)nc(Sc3ccc(NC(=O)C4CC4)cc3)n2)n[nH]1 [Tozasertib] (partner 0.1 µM)
Outline: (§1)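 Relative viability divides the nuclei count in treated wells by that in vehicle wells. Lung cancer cell lines were seeded in 1536-well plates, dosed by pin tool the next day, and fixed and stained after 5 days in one step with final 0.05% Triton X-100, 1% formaldehyde and 1 ug/ml Hoechst. Dosing was a single drug or a fixed anchor-drug dose plus five library-drug doses (not always all listed) in √10 steps, and values are medians of duplicate plates imaged at 4×.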

Salubrinal + OSI-027 = compound: O=C(/C=C/c1ccccc1)NC(NC(=S)Nc1cccc2cccnc12)C(Cl)(Cl)Cl [Salubrinal] + COc1cccc2cc(-c3nc([C@H]4CC[C@H](C(=O)O)CC4)n4ncnc(N)c34)[nH]c12 [OSI-027] (partner 0.5 µM)
Outline: as §1

Salubrinal + Dasatinib = compound: O=C(/C=C/c1ccccc1)NC(NC(=S)Nc1cccc2cccnc12)C(Cl)(Cl)Cl [Salubrinal] + Cc1nc(Nc2ncc(C(=O)Nc3c(C)cccc3Cl)s2)cc(N2CCN(CCO)CC2)n1 [Dasatinib] (partner 0.075 µM)
Outline: as §1

Salubrinal + Pemetrexed = compound: O=C(/C=C/c1ccccc1)NC(NC(=S)Nc1cccc2cccnc12)C(Cl)(Cl)Cl [Salubrinal] + Nc1nc2[nH]cc(CCc3ccc(C(=O)N[C@@H](CCC(=O)O)C(=O)O)cc3)c2c(=O)[nH]1 [Pemetrexed] (partner 0.2 µM)
Outline: as §1

## UMC-11
[1]; first compound 0.04 µM
  relative viability: 0.211
[1]; first compound 0.1265 µM
  relative viability: 0.233
[1]; first compound 0.4 µM
  relative viability: 0.209
[1]; first compound 1.265 µM
  relative viability: 0.205
[1]; first compound 4 µM
  relative viability: 0.194
Salubrinal + OSI-027; first compound 0.08 µM
  relative viability: 0.498
Salubrinal + OSI-027; first compound 0.253 µM
  relative viability: 0.399
Salubrinal + OSI-027; first compound 0.8 µM
  relative viability: 0.548
Salubrinal + OSI-027; first compound 2.53 µM
  relative viability: 0.46
Salubrinal + OSI-027; first compound 8 µM
  relative viability: 0.455
Salubrinal + Dasatinib; first compound 0.08 µM
  relative viability: 0.654
Salubrinal + Dasatinib; first compound 0.253 µM
  relative viability: 0.306
Salubrinal + Dasatinib; first compound 0.8 µM
  relative viability: 0.621
Salubrinal + Dasatinib; first compound 2.53 µM
  relative viability: 0.458
Salubrinal + Dasatinib; first compound 8 µM
  relative viability: 0.471
Salubrinal + Pemetrexed; first compound 0.08 µM
  relative viability: 0.766
Salubrinal + Pemetrexed; first compound 0.253 µM
  relative viability: 0.675
Salubrinal + Pemetrexed; first compound 0.8 µM
  relative viability: 0.968
Salubrinal + Pemetrexed; first compound 2.53 µM
  relative viability: 0.729
Salubrinal + Pemetrexed; first compound 8 µM
  relative viability: 0.726
